Results: patent US8138146B2, “Antiviral peptide and antiviral agent” (priority 2006, dated 2012)
Where two headings read alike, the source gives them in different places. No end group written: not given here.

Experiments:
Format in all cases: cell-based
[1] = system: HVT (turkey herpes virus); assay: HVT multiplication suppression, plaque assay in CEF cells; conditions: for Ratio (relative ratio of virus titer, no peptide = 1) / Titer: HVT FC-126 strain in CEF cells; for Titer: six days; for viral multiplication suppression effect (antiviral activity), in words: HVT in CEF cells, peptide 10, 50, 100 μM, number and size of plaques
[2] = system: MDV (Marek's disease virus); conditions: for antiviral activity (viral multiplication suppression effect) against MDV, in words: MDV in CEF cells, peptide 50 and 100 μM; for Ratio / Titer: MDV type 1 Md5 strain in CEF cells; for Titer: four days
[3] = system: MDCK (Madrin Darby Canine Kidney) cell; assay: Cytotoxicity control, MDCK cells without virus (Example 4); conditions: 48 hours
Method: The culture supernatant was removed from wells where a full sheet (monolayer) composed of MDCK cells was formed by the above culture. 2 mL of PBS was added to the wells and the wells were washed. This washing was repeated twice. Next, a viral solution prepared with MEM medium (no FBS added, containing 0.02% dextran and 1 μg/mL trypsin) so as to have 10^4 PFU/mL was used for inoculation at 0.1 mL per well, and culture was incubated in the presence of 5% CO2, at 34° C. for one hour, to adsorb the virus to the cells. After the incubation, was added 2 mL of MEM medium (no FBS added, containing 0.02% dextran and 1 μg/mL trypsin) containing the test peptide at a given concentration so as to have 50 μM and 10 μM final concentrations of peptide in each well after addition. Note that a well was prepared as a control plot (control), in which 2 mL of the above-mentioned MEM medium not containing peptide was added. In addition, as the control group for evaluating the cytotoxicity of the test peptide, 2 mL of MEM medium (no FBS added, containing 0.02% dextran and 1 μg/mL trypsin) containing the test peptide at a given concentration was added each to wells (with full sheet formed) containing MDCK cells to which the above-mentioned viral solution was not added (that is to say, not containing virus). Then incubation was carried out in the presence of 5% CO2 at 34° C. for 48 hours.

Row | Substance | Ratio (relative ratio of virus titer, no peptide = 1) ([1]; peptide 10 μM) | Titer ([1]; peptide 10 μM) | Ratio (relative ratio of virus titer, no peptide = 1) ([1]; peptide 50 μM) | Titer ([1]; peptide 50 μM) | Ratio (relative ratio of virus titer, no peptide = 1) ([1]; peptide 100 μM) | Titer ([1]; peptide 100 μM) | viral multiplication suppression effect (antiviral activity), in words [1] | also measured
1 | LPPLERLTLD RQARRNRRRRWR-CONH2 (LPPLERLTLDRQARRNRRRRWR-NH2) [Sample 2, NES … on the N-terminal side, NLS … on the C-terminal side; 22 residues] | 0.91 | 8.0 × 10^4 PFU/mL | 0.59 | 5.2 × 10^4 PFU/mL | 0.57 | 5.0 × 10^4 PFU/mL | – | –
2 | LPPLERLTLD-CONH2 (LPPLERLTLD-NH2) [Comparative Sample 2, reference compound] | – | – | – | – | – | – | no viral multiplication suppression effect | –
3 | RKKKRKV LALKAGLDI-CONH2 (RKKKRKVLALKAGLDI-NH2) [Sample 4, modified SV40 NLS plus modified mouse PKI NES with one leucine deleted; 16 residues] | 0.95 | 1.8 × 10^4 PFU/mL | 0.47 | 9.0 × 10^3 PFU/mL | 0.24 | 4.5 × 10^3 PFU/mL | – | antiviral activity (viral multiplication suppression effect) against MDV, in words [2]: satisfactory antiviral activity; Ratio ([2]; peptide 50 μM): 0.63; Titer ([2]; peptide 50 μM): 4.27 × 10^6 TCID50; Ratio ([2]; peptide 100 μM): 0.47; Titer ([2]; peptide 100 μM): 3.16 × 10^6 TCID50
4 | RKKKRKV-CONH2 (RKKKRKV-NH2) [Comparative Sample 4, reference compound] | – | – | – | – | – | – | no viral multiplication suppression effect | –
5 | RQARRNRRRRWR LPPLERLTLD-CONH2 (RQARRNRRRRWRLPPLERLTLD-NH2) [Sample 1, HIV REV-derived NLS on the N-terminal side, HIV-derived NES on the C-terminal side; 22 residues] | 0.75 | 7.8 × 10^4 PFU/mL | 0.25 | 2.6 × 10^4 PFU/mL | 0.13 | 1.4 × 10^4 PFU/mL | – | antiviral activity (viral multiplication suppression effect) against MDV, in words [2]: satisfactory antiviral activity; Ratio ([2]; peptide 50 μM): 0.36; Titer ([2]; peptide 50 μM): 2.40 × 10^6 TCID50; Ratio ([2]; peptide 100 μM): 0.1; Titer ([2]; peptide 100 μM): 6.76 × 10^5 TCID50
6 | RQARRNRRRRWR-CONH2 (RQARRNRRRRWR-NH2) [Comparative Sample 1, reference compound] | – | – | – | – | – | – | no viral multiplication suppression effect | –
7 | YGRKKRRQRRR-CONH2 (YGRKKRRQRRR-NH2) [Comparative Sample 3, reference compound] | – | – | – | – | – | – | no viral multiplication suppression effect | –
8 | YGRKKRRQRRRLPPLERLTLD-NH2 [Sample 3, YGRKKRRQRRR LPPLERLTLD-CONH2] | – | – | – | – | – | – | – | cytotoxicity [3]: no cytotoxicity was observed
